Measurements: the SangsterLogP compilation

Assays:
[1] = method code SF-HPLC, from DOI: 10.1016/j.bmc.2011.11.059, PMID: 22189276; conditions: pH 7.4
[2] = method code SF-AS, from PMID: 8053967; conditions: pH 7.4
[3] = method code SF-AS, from DOI: 10.1039/p29900001191; conditions: pH 12.0
[4] = method code SF-RC, from DOI: 10.1021/jm301492y, PMID: 23214511; conditions: pH 7.4
[5] = not given; remark: listed apart in the source
[6] = not given; remark: listed apart in the source
[7] = method code SF-AS, from DOI: 10.1016/s0014-827x(98)00024-x, PMID: 9679281
[8] = not given; remark: listed apart in the source
[9] = method code SF-HPLC, from DOI: 10.1016/j.apradiso.2007.04.014, PMID: 17574425; conditions: pH 7.4
[10] = method code SF-RC, from DOI: 10.1002/syn.21606, PMID: 22927303; conditions: pH 7.4
[11] = method code SF-AS, from DOI: 10.1016/s0022-3565(25)32601-7, PMID: 7194909
[12] = method code RP-HPLC, from DOI: 10.1021/jm970292n, PMID: 9371243
[13] = not given; remark: listed apart in the source
[14] = method code SF-AS, from DOI: 10.1016/0223-5234(94)90120-1; conditions: pH 7.4
[15] = not given; remark: listed apart in the source
[16] = method code SF, from DOI: 10.1016/j.ijpharm.2011.07.043, PMID: 21839822; conditions: pH 7.4
[17] = method code SF-AS, from DOI: 10.1080/1071576031000148736, PMID: 14567446
[18] = method code SF-RC, from DOI: 10.1016/j.ejmech.2014.07.070, PMID: 25063945; conditions: pH 7.4
[19] = method code SF-RC, from DOI: 10.1016/j.bmcl.2015.05.048, PMID: 26073008; conditions: pH 7.4
[20] = method code SF-HPLC, from DOI: 10.1584/jpestics.11.469
[21] = method code SF-RC, from DOI: 10.1021/acs.jmedchem.6b00849, PMID: 27690428; conditions: pH 7.4
[22] = not given; remark: listed apart in the source
[23] = not given; remark: listed apart in the source
[24] = method code SF-RC, from DOI: 10.1021/jm070025+, PMID: 17411026; conditions: pH 7.4
[25] = method code SF-HPLC, from DOI: 10.1016/j.jpba.2011.06.023, PMID: 21782368; conditions: pH 7.4
[26] = not given; remark: listed apart in the source
[27] = method code SF-HPLC, from DOI: 10.1039/p29890001935
[28] = method code SF-RC, from DOI: 10.1016/j.nucmedbio.2005.06.001, PMID: 16253804; conditions: pH 7.4
[29] = pH 7.4
[30] = method code SF-RC, from DOI: 10.1016/j.bmc.2015.06.036, PMID: 26145817; conditions: pH 7.4
[31] = method code SF-AS, from DOI: 10.1002/ps.2780140302; conditions: pH 5.0

CCOC(=O)COC(=O)NCCCC(C)Nc1cc(OC)cc2cccn12 (stereo not drawn)
logD [1]: 3.09

O=C(CCN1CCOCC1)CN1C(=O)CC2(CCCc3ccccc32)C1=O (stereo not drawn)
logD [2]: 1.63

CC1(C)C=C(C(=O)NCCCN2C(=O)c3ccccc3C2=O)C(C)(C)N1
logP: 1.63

c1ccc(Cc2cc(-c3ccccc3)nnc2NCCN2CCOCC2)cc1
logD [3]: 3.65

CCCCCCNC(=O)c1ccc(O)c(-c2ccccc2)c1
logD [4]: 3.67

C=CCN1CC[C@]23c4c5ccc(O)c4O[C@H]2C(=O)CC[C@@]3(O)[C@H]1C5
logP [5]: 1.53

Cc1cccc(OC(=O)N(C)SN(C)C(=O)Oc2ccc3c(c2)OCO3)c1
logP [6]: 2.66

c1ccc(Nc2nnc(Cn3ccc4ccccc43)s2)cc1
logP [7]: 3.73

CNc1nc(NCCCN(C)C)c2sc(-c3ccc(C(=O)C(F)(F)F)cc3)cc2n1
logP [8]: 4.6

O=C(CCl)Nc1cc2c(Nc3cc(Cl)c(Cl)cc3F)ncnc2cc1OCCOCCF
logD [9]: 4.3

CCc1cc2cc(C(=O)C3CCC(OC)CC3)ccc2nc1C (stereo not drawn)
logD [10]: 3.38

O=C(CCl)Nc1cc2c(Nc3cc(Cl)c(Cl)cc3F)ncnc2cc1OCCOCCOCCOCCF
logD [9]: 4.64

OC1(c2ccc(Cl)cc2)c2ccccc2C2=NCCCN21 (stereo not drawn)
logP [11]: 1.41

O=C1c2c(O)cccc2C(c2ccccc2)c2cccc(O)c21
logP [12]: 3.81

Cc1ccc(OP(=O)(Oc2ccccc2)Oc2ccccc2)cc1
logP [13]: 4.4

OC1(c2ccc(Cl)cc2)c2ccccc2C2=NCCCCN21 (stereo not drawn)
logP [11]: 1.15

S=C1SCN(CCc2ccccc2)CN1CCc1ccccc1
logD [14]: 5.3

CO[C@@]12CCC(=O)[C@]3(C)Oc4c(O)ccc5c4[C@@]31CCN(C)[C@@H]2C5
logP [15]: 1.12

N#Cc1cc(-c2ccccc2)nnc1NCCN1CCOCC1
logD [3]: 1.89

CCCCCCCCCCCCNC(=O)c1ccccc1O
logD [16]: 5.37

CC(=O)Oc1cc2c(cc1Cl)C(c1ccccc1C(=O)O)c1cc(Cl)c(OC(C)=O)cc1O2
logP [17]: 3.51

CN(C)c1ccc(/C=C/C(=O)/C=C/c2ccc(F)cc2)cc1
logD [18]: 3.89

O=c1cc(/C=C/c2ccc(O)cc2)oc2ccc(I)cc12
logD [19]: 1.87

CCOC(=O)C(C)Oc1ccc(Oc2cnc3cc(C)ccc3n2)cc1 (stereo not drawn)
logP [20]: 4.11

CNc1nc(NCCCN(C)C)c2sc(-c3cccc(C(=O)C(F)(F)F)c3)cc2n1
logP [8]: 4.3

COc1ccc(/C=C/c2cc(=O)c3cc(I)ccc3o2)cc1
logD [19]: 2.15

N#Cc1ccc(N(Cc2ccc(I)cc2)n2ccnc2)cc1
logD [21]: 1.59

C[C@]12CC[C@@H](O)C[C@@H]1CC[C@@H]1[C@@H]2CC[C@]2(C)[C@@H](O)CC[C@@H]12
logP [22]: 4.16

CNc1ccc(/C=C/C(=O)/C=C/c2ccc(F)cc2)cc1
logD [18]: 2.69

CC(n1ccnc1)C(O)(c1ccc(F)cc1)c1ccc(F)cc1 (stereo not drawn)
logP [23]: 3.13

C[C@]12CC[C@H](O)CC1=CC[C@@H]1[C@@H]2CC[C@]2(C)C(=O)CC[C@@H]12
logP [22]: 3.23

O=C(CCN1CCOCC1)CN1C(=O)CC2(CCc3ccccc32)C1=O (stereo not drawn)
logD [2]: 1.26

CN(C)c1ccc(/C=C/c2cnc(OCCOCCOCCF)c(I)c2)cc1
logD [24]: 2.59

CCOC(=O)CC(CNC(=O)OC(C)(C)C)c1ccc(Cl)cc1 (stereo not drawn)
logD [25]: 2

COc1cc2nc(N(C)CCCNC(=O)C3CCCO3)nc(N)c2cc1OC (stereo not drawn)
logP [26]: 1.93

CO[C@@]12CCC(=O)[C@@H]3Oc4c(O)ccc5c4[C@@]31CCN(C)[C@@H]2C5
logP [15]: 0.6

Cc1ccccc1C1OCC2ON=C(c3ccccc3)C2CO1 (stereo not drawn)
logP [27]: 2.72

COC(=O)CC(CNC(=O)OC(C)(C)C)c1ccc(Cl)cc1 (stereo not drawn)
logD [25]: 1.5

Cc1[nH]c2ccccc2c1Cc1n[nH]c(=S)n1-c1cccc2ccccc12
logP [7]: 3.02

COC(=O)C1=C(C)NC(C)=C(C(=O)OCC(C)C)C1c1cccc([N+](=O)[O-])c1 (stereo not drawn)
logP [26]: 3.23

FC(F)(F)c1ccccc1C1OCC2ON=C(c3ccccc3)C2CO1 (stereo not drawn)
logP [27]: 4.31

N#Cc1ccc(N(Cc2ccc(I)cc2)c2cncnc2)cc1
logD [21]: 2.16

CNc1ccc(C=Cc2ccc(OCCOCCF)cc2)cc1
logD [28]: 2.52

O=C(O)c1ccccc1C1c2cc(Cl)c(O)cc2Oc2cc(O)c(Cl)cc21
logP [17]: 2.62

CCOC(=O)C(C)Oc1ccc(Oc2cnc3cc(F)ccc3n2)cc1 (stereo not drawn)
logP [20]: 3.65

Cc1ccc(C)n1NC(=O)Cc1ccc(N2CCOCC2)nn1
logD [29]: 1.64

Cc1cc(N(C)CCOCCF)n2nc(C)c(-c3ccc(Cl)cc3Cl)c2n1
logD [30]: 2.3

OC(c1ccccc1)(c1cncnc1)c1ccc(Cl)cc1Cl (stereo not drawn)
logD [31]: 2.56

CCCCCCOC(=O)NCCCC(C)Nc1cc(OC)cc2cccnc12 (stereo not drawn)
logD [1]: 3.02

CC(=O)Oc1ccc(C(O)(Cn2ccnc2)c2ccc(-c3ccncc3)cc2)cc1 (stereo not drawn)
logP [23]: 2.61

O=C(NC1CCCCC1)c1ccc(O)c(-c2ccccc2)c1
logD [4]: 2.85

CCc1cc2cc(C(=O)C3CCC(OC)CC3)ccc2nc1F (stereo not drawn)
logD [10]: 3.54

COc1ccc(C(C)NCCC(c2ccccc2)c2ccccc2)cc1OC (stereo not drawn)
logP: 5.74

S=C1SCN(CCc2ccccc2)CN1Cc1ccccc1
logD [14]: 4.7

O=C1CC[C@@]2(O)[C@H]3Cc4ccc(O)c5c4[C@@]2(CCN3CC2CC2)[C@H]1O5
logP [5]: 1.12

CNc1ccc(C=Cc2ccc(OCCOCCOCCF)cc2)cc1
logD [28]: 2.41

CN(SN(C)C(=O)Oc1cccc2ccccc12)C(=O)Oc1ccc2c(c1)OCO2
logP [6]: 2.83

COc1cccc2cc3cccc(OC)c3c(OC)c12
logP [12]: 4.1

Cc1cc(N(C)CCCCF)n2nc(C)c(-c3ccc(Cl)cc3Cl)c2n1
logD [30]: 2.75

CCCCCCCCCCNC(=O)c1ccccc1O
logD [16]: 4.53

O=P(Oc1ccccc1)(Oc1ccccc1)Oc1ccccc1
logP [13]: 3.9

OC(c1ccc(F)cc1)(c1cncnc1)c1ccccc1Cl (stereo not drawn)
logD [31]: 2.2

CNc1ccc(/C=C/c2cnc(OCCOCCOCCF)c(I)c2)cc1
logD [24]: 2.54
